Consider 19 compounds from US9617229B2, “Phenylmorpholines and analogues thereof” (Research Triangle Institute, priority 2010, dated 2017).

Structures can show the parent of a compound that is named as a salt.

Experiment [1] concerns the target T1, SERT (Rattus norvegicus, UniProt P31652). Briefly: 5-HT release assay (synaptosomes, [3H]5-HT). Details: the supernatants were retained on ice (synaptosomal preparation); from tissue; host or cells: rat whole brain minus cerebellum and caudate, synaptosomes. Type of experiment: biochemical. Conditions: for activation at 10 µM / Release 5-HT (EC50 nm): Table 3; for Release 5-HT (EC50 nm): rat brain synaptosomes; for 5HT Rel (%): Table 4, % EC50 of release. The method, then:
(§1) Rat caudate (for DA release) or whole brain minus cerebellum and caudate (for NE and 5-HT release), was homogenized in ice-cold 10% sucrose containing 1 μM reserpine. Nomifensine (100 nM) and GBR12935 (100 nM) were added to the sucrose solution for [^3H]5-HT release experiments to block any potential [^3H]5-HT reuptake into NE and DA nerve terminals. For the DA release assay, 100 nM desipramine and 100 nM citalopram were added to block [^3H]MPP^+ uptake into NE and 5-HT nerves. For the NE release assay, 50 nM GBR12935 and 100 nM citalopram were added to block [^3H]MPP^+ uptake into DA and 5-HT nerves. After 12 strokes with a Potter-Elvehjem homogenizer, homogenates were centrifuged at 1000×g for 10 min at 0-4° C. and the supernatants were retained on ice (synaptosomal preparation).
(§2) After incubation to steady state, 850 μl of synaptosomes preloaded with [^3H]ligand were added to 12×75 mm polystyrene test tubes that contained 150 μl test drug in uptake buffer plus 1 mg/ml BSA. After 5 min (^3H]5-HT) or 30 min (NE and DA assays) the release reaction was terminated by dilution with 4 ml wash buffer (10 mM Tris-HCl pH 7.4 containing 0.9% NaCl at 25° C.) followed by rapid vacuum filtration over Whatman GF/B filters using a Brandel Harvester. The filters were rinsed twice with 4 ml wash buffer using the Brandel Harvester, and the retained tritium was counted by a Taurus liquid scintillation counter at 40% efficiency after an overnight extraction in 3 ml Cytoscint (ICN).
(§3) In substrate reversal experiments, statistical significance was determined using the Student's t-test.

The target in experiment [2] is T2, 5-HT2B receptor (Homo sapiens, UniProt P41595). In words: 5-HT2B activity, agonist. Type of experiment: cell-based.
The target of experiment [3] is T3, DAT (Rattus norvegicus, UniProt P23977). In words: DA release assay (synaptosomes, [3H]MPP+). Type of experiment: biochemical. Details: the supernatants were retained on ice (synaptosomal preparation); from tissue; host or cells: rat caudate synaptosomes. Conditions: for activation at 10 µM: Table 3; for DA Rel (%): Table 4, % EC50 of release. The method, then: as §1, §2, §3

Experiment [4] concerns the target T2, 5-HT2B receptor. In words: 5-HT2B activity, antagonist. Type of experiment: cell-based.
A further experiment deals with T4, NET (Rattus norvegicus, UniProt Q63380).
T4 construct: the supernatants were retained on ice (synaptosomal preparation); from tissue; host or cells: rat whole brain minus cerebellum and caudate, synaptosomes
Briefly: NE release assay (synaptosomes, [3H]MPP+). Conditions: for NE Rel (%): % EC50 of release. Type of experiment: biochemical. As to the method: as §1, §2, §3

Experiment [5] concerns the target T1, SERT. Briefly: 5HT uptake inhibition. Format: biochemical.
In experiment [6] the target is T3, DAT. Briefly: DA uptake inhibition. Type of experiment: biochemical. Conditions: Table 5.
[7] abbreviates: Release NE (EC50 nm), Table 3, rat brain synaptosomes.

T2 sequence (P41595 whole entry): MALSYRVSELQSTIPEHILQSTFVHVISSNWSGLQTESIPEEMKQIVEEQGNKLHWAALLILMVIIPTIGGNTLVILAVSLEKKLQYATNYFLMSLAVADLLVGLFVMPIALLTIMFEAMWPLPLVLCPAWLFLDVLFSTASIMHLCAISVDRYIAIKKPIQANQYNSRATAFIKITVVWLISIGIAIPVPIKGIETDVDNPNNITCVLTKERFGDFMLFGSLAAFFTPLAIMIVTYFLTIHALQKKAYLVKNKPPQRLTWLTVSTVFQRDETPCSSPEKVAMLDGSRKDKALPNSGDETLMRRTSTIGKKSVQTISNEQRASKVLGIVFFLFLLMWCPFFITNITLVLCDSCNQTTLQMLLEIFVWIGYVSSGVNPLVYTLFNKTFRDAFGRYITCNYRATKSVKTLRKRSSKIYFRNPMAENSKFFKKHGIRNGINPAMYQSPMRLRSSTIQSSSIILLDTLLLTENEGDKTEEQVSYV
T4 sequence (Q63380 1-617): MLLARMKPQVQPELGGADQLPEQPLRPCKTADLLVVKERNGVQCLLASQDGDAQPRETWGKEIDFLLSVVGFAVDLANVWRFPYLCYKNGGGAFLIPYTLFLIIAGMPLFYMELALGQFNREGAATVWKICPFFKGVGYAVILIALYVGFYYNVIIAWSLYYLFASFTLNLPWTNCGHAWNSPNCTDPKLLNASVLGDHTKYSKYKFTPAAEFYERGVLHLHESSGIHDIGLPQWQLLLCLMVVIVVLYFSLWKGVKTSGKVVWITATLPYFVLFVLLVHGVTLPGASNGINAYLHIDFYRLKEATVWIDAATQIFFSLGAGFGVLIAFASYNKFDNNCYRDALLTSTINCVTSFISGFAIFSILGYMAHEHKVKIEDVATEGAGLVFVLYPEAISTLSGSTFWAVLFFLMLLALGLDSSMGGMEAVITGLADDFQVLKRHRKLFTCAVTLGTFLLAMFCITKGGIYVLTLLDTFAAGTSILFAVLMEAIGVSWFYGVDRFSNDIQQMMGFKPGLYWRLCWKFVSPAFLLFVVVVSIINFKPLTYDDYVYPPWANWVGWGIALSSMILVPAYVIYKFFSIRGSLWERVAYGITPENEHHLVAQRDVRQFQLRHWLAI
T3 sequence (P23977 whole entry): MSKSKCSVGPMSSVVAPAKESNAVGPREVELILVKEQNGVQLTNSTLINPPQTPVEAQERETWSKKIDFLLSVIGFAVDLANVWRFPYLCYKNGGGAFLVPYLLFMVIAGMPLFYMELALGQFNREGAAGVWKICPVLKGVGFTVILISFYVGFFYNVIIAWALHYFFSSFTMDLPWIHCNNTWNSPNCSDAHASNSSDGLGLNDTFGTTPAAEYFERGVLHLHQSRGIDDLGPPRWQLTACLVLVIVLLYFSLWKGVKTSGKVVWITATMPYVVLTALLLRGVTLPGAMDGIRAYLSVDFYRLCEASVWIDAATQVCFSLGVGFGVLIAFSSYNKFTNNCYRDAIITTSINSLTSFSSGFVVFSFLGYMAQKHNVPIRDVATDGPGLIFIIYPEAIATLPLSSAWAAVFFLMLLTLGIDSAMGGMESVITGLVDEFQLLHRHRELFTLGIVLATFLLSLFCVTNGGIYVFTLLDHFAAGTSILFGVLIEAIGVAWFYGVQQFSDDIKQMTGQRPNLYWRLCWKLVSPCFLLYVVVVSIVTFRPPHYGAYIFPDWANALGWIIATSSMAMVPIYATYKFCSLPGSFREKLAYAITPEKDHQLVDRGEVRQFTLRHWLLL
T1 sequence (P31652 whole entry): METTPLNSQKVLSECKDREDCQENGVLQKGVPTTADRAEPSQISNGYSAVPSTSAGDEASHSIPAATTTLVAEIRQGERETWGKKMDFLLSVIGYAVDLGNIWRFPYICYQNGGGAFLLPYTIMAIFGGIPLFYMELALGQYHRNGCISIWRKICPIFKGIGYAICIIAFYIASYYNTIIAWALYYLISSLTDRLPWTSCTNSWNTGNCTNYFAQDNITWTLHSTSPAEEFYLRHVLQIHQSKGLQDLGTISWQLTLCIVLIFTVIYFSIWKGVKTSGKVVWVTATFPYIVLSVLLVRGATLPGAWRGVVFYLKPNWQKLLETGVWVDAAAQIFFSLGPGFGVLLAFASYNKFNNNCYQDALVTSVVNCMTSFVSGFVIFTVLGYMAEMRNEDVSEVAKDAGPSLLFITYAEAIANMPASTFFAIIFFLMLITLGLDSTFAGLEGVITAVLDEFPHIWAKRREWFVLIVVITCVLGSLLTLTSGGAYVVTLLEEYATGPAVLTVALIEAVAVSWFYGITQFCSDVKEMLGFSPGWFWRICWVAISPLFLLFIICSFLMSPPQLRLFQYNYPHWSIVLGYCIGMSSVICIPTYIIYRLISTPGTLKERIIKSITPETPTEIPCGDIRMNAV

With `C[C@H]1NCCOC1c1cccc(Cl)c1` (stereo in doubt) [PAL594, 2-(3-chloro-phenyl)-3-methyl-morpholine], the “5HT releaser activity (in words)” value at SERT [1] is given as “improvements in 5HT release”. The EC50 – broadly, the concentration at which the effect is half-maximal – worked out at 301 nM on SERT [1]; 27 nM at DAT [3]; 75 nM at NET (NE Rel (EC50), Table 4). Moreover, the activation at 10 µM on SERT [1] stood at 95%; at 5-HT2B receptor [2], 2%; at DAT [3], 100%; on NET (Table 3) it was 82%. Besides, the inhibition – broadly, the share of the control response that was lost under treatment – at 1 µM on 5-HT2B receptor [4] stood at 28%.

Consider `C[C@H]1NCCOC1c1ccccc1` (some centres unmarked) [PAL55, reference compound], for which the EC50 at SERT [1] was determined as 7770 nM; at DAT [3], 131 nM; on NET (setting [7]), 50 nM. On 5-HT2B receptor [2], this compound displayed an activation at 10 µM of 0%.

Regarding `C[C@H]1NCCO[C@@H]1c1ccccc1` [PAL56, (+)-phenmetrazine, reference compound], on SERT [1], the “5HT releaser activity (in words)” value is listed as “effective DA/5HT releaser”. For the same compound, the EC50 at SERT [1] was found to be 3250 nM; on DAT [3] it was 87 nM; on NET (NE Rel (EC50), Table 4), 38 nM; at NET (setting [7]), 37 nM. The compound also returned an activation at 10 µM at 5-HT2B receptor [2] of 0%. The “DA releaser activity (in words)” value at DAT [3] is listed as “effective DA/5HT releaser”. This compound yielded an inhibition at 1 µM against 5-HT2B receptor [4] of 42%.

For `C[C@@H]1NCCO[C@H]1c1ccccc1` [PAL57, reference compound], the “Release 5-HT (EC50 nm)” value on SERT [1] was “inactive”. Further, on 5-HT2B receptor [2], the activation at 10 µM was 0%. Moreover, the values for the EC50 at DAT [3] and at NET (setting [7]) were 415 nM and 63 nM, respectively.

Consider `C[C@H]1NCCO[C@H]1c1ccccc1` [PAL60, reference compound], for which the “Release 5-HT (EC50 nm)” value at SERT [1] is reported as “Inactive”. The activation at 10 µM at 5-HT2B receptor [2] came to 0%. Moreover, the EC50 came to 1460 nM on DAT [3] and 349 nM at NET (setting [7]).

For `CC1NCCOC1(O)c1ccccc1` (centres unmarked) [PAL583, 3-methyl-2-phenylmorpholin-2-ol], the activation at 10 µM at SERT [1] was 0%; at 5-HT2B receptor [2] it was 0%; on DAT [3], 29%; on NET (Table 3), 69%. In addition, the inhibition at 1 µM at 5-HT2B receptor [4] came out at 6%.

Turning to `CC1NCCOC1(O)c1cccc(F)c1` (centres unmarked) [PAL587, 2-(3-fluorophenyl)-3-methylmorpholin-2-ol], the activation at 10 µM was 6% on SERT [1], 0% at 5-HT2B receptor [2], 34% on DAT [3] and 67% at NET (Table 3). On 5-HT2B receptor [4], the inhibition at 1 µM is 0%.

Consider `Cc1cccc(C2(O)OCCNC2C)c1` (centres unmarked) [PAL589, 3-methyl-2-(3′-tolyl)morpholin-2-ol], for which the activation at 10 µM is 56% at SERT [1], 0% on 5-HT2B receptor [2], 28% on DAT [3] and 47% at NET (Table 3). The inhibition at 1 µM on 5-HT2B receptor [4] was determined as 12%.

As to `CC1NCCOC1(O)c1cccc(Cl)c1` (centres unmarked) [PAL590, 2-(3-chlorophenyl)-3-methylmorpholin-2-ol], the activation at 10 µM was determined as 41% at SERT [1], 0% on 5-HT2B receptor [2], 39% on DAT [3] and 62% on NET (Table 3). The compound further had an inhibition at 1 µM at 5-HT2B receptor [4] of 16%.

With `CC1NCCOC1c1cccc(F)c1` (centres unmarked) [PAL593, 2-(3-fluoro-phenyl)-3-methyl-morpholine], the activation at 10 µM was determined as 95% at SERT [1], 0% at 5-HT2B receptor [2], 100% at DAT [3] and 93% on NET (Table 3). This compound returned an inhibition at 1 µM at 5-HT2B receptor [4] of 1%.

With `c1ccc(C2CNCCO2)cc1` (centres unmarked) [PAL632], the EC50 came to 20300 nM at SERT [1]; 86 nM at DAT [3]; 79 nM at NET (NE Rel (EC50), Table 4). In addition, the activation at 10 µM on SERT [1] was determined as 31%; on 5-HT2B receptor [2], 2%; at DAT [3] it was 98%; on NET (Table 3) it was 96%. This compound also came in with an inhibition at 1 µM at 5-HT2B receptor [4] of 12%.

Turning to `Fc1ccc(C2CNCCO2)cc1` (centres unmarked) [PAL635, 2-(4-fluorophenyl)morpholine], the EC50 was determined as 2400 nM on SERT [1]; 529 nM on DAT [3]; 285 nM on NET (NE Rel (EC50), Table 4). Moreover, the activation at 10 µM at SERT [1] is 88%; on 5-HT2B receptor [2], 0%; on DAT [3] it was 95%; on NET (Table 3), 100%.

With `CC1NCCOC1c1ccc2ccccc2c1` (centres unmarked) [PAL 704, 3-Methyl-2-(2′-Naphthyl)morpholine hydrochloride], the “DA releaser activity (in words)” value on DAT [3] was “DA/NE releasers”. The EC50 at DAT [3] stood at 111 nM; on SERT [5], 105 nM; on NET (NE Rel (EC50), Table 4), 203 nM. Besides, the “5HT uptake inhibition (in words)” value at SERT [5] is recorded as 5HT uptake inhibitors. For the same compound, the “NE releaser activity (in words)” value at NET is “DA/NE releasers”.

For the compound `CC1NCCOC1c1cccc(C#N)c1.Cl` (centres unmarked) [PAL 786, 3-Methyl-[(3′-Cyano)-2-Phenyl]morpholine hydrochloride], the “5HT Rel (%)” value on SERT [1] amounted to 99%. In addition, the “DA Rel (%)” value on DAT [3] worked out at 99%. The “NE Rel (%)” value at NET (Table 4) is 100%.

Consider `CC1NCCOC1c1ccc(Cl)c(Cl)c1.Cl` (centres unmarked) [PAL 788, 3-Methyl-[(3′,4′-Dichloro)-2-Phenyl]morpholine hydrochloride], for which, at DAT [3], the “DA releaser activity (in words)” value is “DA/NE releasers” and the “DA Rel (%)” value is recorded as 60%. For the same compound, the “5HT uptake inhibition (in words)” value at SERT [5] is on record as 5HT uptake inhibitors. Moreover, the “5HT Up (%)” value on SERT [5] (Table 4) is reported as 95%. In addition, at NET, the “NE releaser activity (in words)” value is listed as “DA/NE releasers”. Besides, the “NE Rel (%)” value on NET (Table 4) was determined as 98%.

With `CC1NCCOC1c1ccc(F)c(Cl)c1.Cl` (centres unmarked) [PAL 821, 3-Methyl-[(3′-Chloro-4′-Fluoro)-2-Phenyl]morpholine hydrochloride], the “5HT Rel (%)” value at SERT [1] is on record as 71%. Also, at DAT [3], the “DA Rel (%)” value was 94%. In addition, the “NE Rel (%)” value on NET (Table 4) came out at 80%.

As to `COc1cccc(C2OCCNC2C)c1.COc1cccc(C2OCCNC2C)c1.O=C(O)/C=C/C(=O)O` (centres unmarked) [PAL 823, 3-Methyl-[(3′-Methoxy)-2-Phenyl]morpholine (0.5 fumarate)], the “5HT Rel (%)” value on SERT [1] is on record as 78%. The “DA Rel (%)” value on DAT [3] is recorded as 96%. The “NE Rel (%)” value at NET (Table 4) is given as 86%.

In the case of `C[C@H]1CO[C@@H](c2ccc(Cl)cc2)CN1` [PAL 899, (2S,5S)-2-(4-Chloro-phenyl)-5-methyl-morpholine], the “DA Up (%)” value on DAT [6] was 90%.

`Cc1ccc([C@H]2CN[C@@H](C)CO2)cc1` [PAL 914, (2S,5S)-5-Methyl-2-p-tolyl-morpholine]: the “DA Up (%)” value on DAT [6] worked out at 88%.
